# Assay results: ChEMBL document CHEMBL1201862, “PubChem BioAssay data set” (2004)
# Values joined by “and” are separate entries in the source; they are usually repeats but may differ in a detail not shown here. Equal entries are not always repeated.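 Exposure lasted 48 hours, with cells grown in 96-well plates and compounds tested at five concentrations. GI50 = concentration required for 50% inhibition of growth.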 Active and inactive are the calls of the source. Cut-off read from the data, not from the text of the source: active = GI50 up to about 1.1 µM and inactive = higher.
# Legend:
# Test in all cases: DTP human tumour cell line panel, 48 h
# A549 = test system: A549
# NCI-H23 = test system: NCI-H23
# SK-MEL-2 = test system: SK-MEL-2
# OVCAR-8 = test system: OVCAR-8
# HCT-15 = test system: HCT-15
# IGROV-1 = test system: IGROV-1
# SF-539 = test system: SF-539
# M14 = test system: M14
# OVCAR-4 = test system: OVCAR-4
# EKVX = test system: EKVX
# SF-268 = test system: SF-268
# CAKI-1 = test system: CAKI-1
# SW-620 = test system: SW-620
# OVCAR-3 = test system: OVCAR-3
# UACC-257 = test system: UACC-257
# RPMI-8226 = test system: RPMI-8226
# CCRF-CEM = test system: CCRF-CEM
# A498 = test system: A498
# SK-OV-3 = test system: SK-OV-3
# MDA-N = test system: MDA-N
SMILES,GI50 (A549),GI50 (NCI-H23),GI50 (SK-MEL-2),GI50 (OVCAR-8),GI50 (HCT-15),GI50 (IGROV-1),GI50 (SF-539),GI50 (M14),GI50 (OVCAR-4),GI50 (EKVX),GI50 (SF-268),GI50 (CAKI-1),GI50 (SW-620),GI50 (OVCAR-3),GI50 (UACC-257),GI50 (RPMI-8226),GI50 (CCRF-CEM),GI50 (A498),GI50 (SK-OV-3),GI50 (MDA-N)
Clc1ccc(C2N3CCCCC3[C@@H]3c4[nH]c5ccccc5c4CCN23)cc1 (some centres not stated),79.6 µM (inactive),42.9 µM (inactive),34 µM (inactive),> 100 µM (inactive),53 µM,> 100 µM (inactive),44.1 µM (inactive),38.3 µM (inactive),56.1 µM (inactive),81.7 µM (inactive),57.9 µM (inactive),> 100 µM (inactive),44.9 µM (inactive),50.5 µM (inactive),83 µM (inactive),90.2 µM (inactive),24.9 µM (inactive),94.4 µM (inactive),> 100 µM (inactive),–
O=c1c2ccccc2c(=O)n2n1CC=CC2,> 100 µM (inactive),> 100 µM (inactive),> 100 µM (inactive),> 100 µM (inactive),> 100 µM,> 100 µM (inactive),> 100 µM (inactive),> 100 µM (inactive),> 100 µM (inactive),> 100 µM (inactive),> 100 µM (inactive),> 100 µM (inactive),> 100 µM (inactive),> 100 µM (inactive),> 100 µM (inactive),> 100 µM (inactive),> 100 µM (inactive),> 100 µM (inactive),> 100 µM (inactive),–
Clc1cccc(C2SCc3nc4ccccc4n32)c1Cl (configuration not stated),17.9 µM (inactive),17.8 µM (inactive),16.7 µM (inactive),19 µM (inactive),17.4 µM,16.6 µM (inactive),17.2 µM (inactive),16.6 µM (inactive),13.9 µM (inactive),16.2 µM (inactive),21 µM (inactive),16.3 µM (inactive),17.1 µM (inactive),19 µM (inactive),15.2 µM (inactive),13.3 µM (inactive),19.1 µM (inactive),15.2 µM (inactive),20.1 µM (inactive),–
Cc1c/c(=N/NC(=O)c2ccncc2)n2nc(N)sc2n1,> 100 µM (inactive),> 100 µM (inactive),> 100 µM (inactive),> 100 µM (inactive),> 100 µM,> 100 µM (inactive),> 100 µM (inactive),> 100 µM (inactive),> 100 µM (inactive),> 100 µM (inactive),–,> 100 µM (inactive),> 100 µM (inactive),> 100 µM (inactive),> 100 µM (inactive),> 100 µM (inactive),> 100 µM (inactive),> 100 µM (inactive),> 100 µM (inactive),–
CC(=O)OC1C/C(C)=C/CCC(C)/C=C/C2(C)CCC(C(C)(C)O)C12 (configuration not stated),53 µM (inactive),42.5 µM (inactive),34.4 µM (inactive),57 µM (inactive),43.9 µM,36.8 µM (inactive),> 100 µM (inactive),52.6 µM (inactive),49.8 µM (inactive),63.2 µM (inactive),61.7 µM (inactive),59 µM (inactive),47.5 µM (inactive),46.7 µM (inactive),26.1 µM (inactive),23.2 µM (inactive),28.6 µM (inactive),> 100 µM (inactive),> 100 µM (inactive),–
Cc1ccnc(NC(=S)Nc2cccc(Cl)c2)c1,> 100 µM (inactive),–,> 100 µM (inactive),> 100 µM (inactive),> 100 µM,10.5 µM (inactive),> 100 µM (inactive),> 100 µM (inactive),> 100 µM (inactive),12.4 µM (inactive),> 100 µM (inactive),> 100 µM (inactive),> 100 µM (inactive),> 100 µM (inactive),> 100 µM (inactive),> 100 µM (inactive),> 100 µM (inactive),> 100 µM (inactive),> 100 µM (inactive),–
O=C1C=Cc2c(-c3ccccc3)oc3cccc1c23,6.98 µM (inactive),16.4 µM (inactive),67.1 µM (inactive),9.31 µM (inactive),5.97 µM,15.8 µM (inactive),12 µM (inactive),30.5 µM (inactive),40.7 µM (inactive),3.19 µM (inactive),21.1 µM (inactive),6.55 µM (inactive),18.7 µM (inactive),20.9 µM (inactive),35.4 µM (inactive),3.97 µM (inactive),15 µM (inactive),15.4 µM (inactive),24.4 µM (inactive),–
COC(=O)[C@@H]1[C@H](O)[C@H](C)[C@H](O)[C@@](C)(O)/C=C\C=C(\C)C(=O)Nc2c(C)c(OC(C)=O)c3c(c2O)C(=O)C(C)=C2OCOC(=C23)/C(C)=C/[C@@](C)(O)[C@H](O)[C@@H](C)[C@H]1OC(C)=O,43.3 µM (inactive),27.4 µM (inactive),37.2 µM (inactive),31.8 µM (inactive),26.9 µM,> 100 µM (inactive) and 53 µM (inactive),> 100 µM (inactive) and 50.7 µM (inactive),–,55.6 µM (inactive),78.2 µM (inactive),4.76 µM (inactive),93.8 µM (inactive),9.91 µM (inactive) and 59 µM (inactive),43.1 µM (inactive) and 32 µM (inactive),27.2 µM (inactive) and 80.4 µM (inactive),31.8 µM (inactive),15.8 µM (inactive),> 66.8 µM (inactive),82.2 µM (inactive),–
CN(/N=C/c1cccs1)c1ccc([N+](=O)[O-])cc1[N+](=O)[O-],> 100 µM (inactive),> 100 µM (inactive),–,> 100 µM (inactive),> 100 µM,> 100 µM (inactive),> 100 µM (inactive),> 100 µM (inactive),> 100 µM (inactive),> 100 µM (inactive),> 100 µM (inactive),> 100 µM (inactive),> 100 µM (inactive),> 100 µM (inactive),> 100 µM (inactive),> 100 µM (inactive),> 100 µM (inactive),–,> 100 µM (inactive),> 100 µM (inactive)
Cc1ccccc1NC(=O)CC1C(=O)Nc2ccccc2[S+]1[O-] (configuration not stated),> 100 µM (inactive),> 100 µM (inactive),> 100 µM (inactive),47.9 µM (inactive),> 100 µM,88.1 µM (inactive),36.1 µM (inactive),> 100 µM (inactive),71.6 µM (inactive),> 100 µM (inactive),> 100 µM (inactive),> 100 µM (inactive),> 100 µM (inactive),> 100 µM (inactive),> 100 µM (inactive),> 100 µM (inactive),> 100 µM (inactive),> 100 µM (inactive),–,–
O=c1c2ccccc2nc(N/N=C/c2ccc([N+](=O)[O-])cc2)n1-c1ccccc1,15.6 µM (inactive),61.1 µM (inactive),–,37.8 µM (inactive),> 100 µM,> 100 µM (inactive),–,31.7 µM (inactive),6.1 µM (inactive),20 µM (inactive),12.1 µM (inactive),21.6 µM (inactive),–,31.3 µM (inactive),15.6 µM (inactive),> 100 µM (inactive),> 100 µM (inactive),–,18.7 µM (inactive),57.5 µM (inactive)
COC(C)(C)[C@@H]1CCCN1C1=C(C)C(=O)OC1,–,> 100 µM (inactive),> 100 µM (inactive),–,> 100 µM,> 100 µM (inactive),> 100 µM (inactive),–,–,–,> 100 µM (inactive),> 100 µM (inactive),–,–,–,> 100 µM (inactive),> 100 µM (inactive),–,> 100 µM (inactive),> 100 µM (inactive)
Cc1ccc(/N=N/N(C)C(C)C(O)Cc2ccccc2)cc1 (configuration not stated),60.5 µM (inactive),50.9 µM (inactive),37.8 µM (inactive),37.7 µM (inactive),41 µM,29.2 µM (inactive),–,95.7 µM (inactive),> 100 µM (inactive),62.2 µM (inactive),46 µM (inactive),93.8 µM (inactive),64.9 µM (inactive),84.3 µM (inactive),84.9 µM (inactive),12.4 µM (inactive),32.7 µM (inactive),–,> 100 µM (inactive),23.7 µM (inactive)
CCOC(=N)CC(=O)Nc1ccccc1,> 46.5 µM (inactive),> 46.5 µM (inactive),> 31.6 µM (inactive),> 21.5 µM (inactive),32.8 µM,> 46.5 µM (inactive),> 46.5 µM (inactive),> 46.5 µM (inactive),34.5 µM (inactive),> 100 µM (inactive),> 46.5 µM (inactive),> 100 µM (inactive),36.9 µM (inactive),> 31.6 µM (inactive),> 46.5 µM (inactive),15.9 µM (inactive),19.4 µM (inactive),> 46.5 µM (inactive),> 100 µM (inactive),–
CCCCCCC(C)CCCCCCCCCCC(=O)O (configuration not stated),> 100 µM (inactive),> 100 µM (inactive),> 100 µM (inactive),> 100 µM (inactive),–,> 100 µM (inactive),> 100 µM (inactive),> 100 µM (inactive),> 100 µM (inactive),> 100 µM (inactive),> 100 µM (inactive),> 100 µM (inactive),> 100 µM (inactive),> 100 µM (inactive),> 100 µM (inactive),> 100 µM (inactive),> 100 µM (inactive),> 100 µM (inactive),> 100 µM (inactive),–
